Where a name gives a salt, the structure may show the parent alone.
system: Aβ42 production in H4 cells stably transfected with APP751 containing the Swedish mutation (H4 APP751 SWE clone 8.20); assay: Cellular assay for inhibition of Aβ1-42 production (H4 APP751 SWE clone 8.20); format: cell-based; settings: H4 APP751 SWE clone 8.20 cells, 19 h incubation; Table 5A, 6-alkyl and 6-substituted phenyl thiazine examples
Description: Cellular Assays for Inhibition of Aβ1-40 and Aβ1-42 Production
H4 cells stably transfected with APP751 containing the Swedish mutation (H4 APP751 SWE clone 8.20, developed at BMS) were maintained in log phase through twice weekly passage at a 1:20 split. […] Following incubation for 19 h in 5% CO2 at 37° C., plates were briefly centrifuged (1000 rpm, 5 min). A 10 μl aliquot from each well was transferred to a second assay plate (Costar 3709) for Aβ40 measurements. Antibody cocktails were freshly prepared by dilution into 40 mM Tris-HCl (pH 7.4) with 0.2% BSA and added to assay plates. For Aβ42 measurements, antibodies specific for the Aβ42 neoepitope (565, developed at BMS; conjugated to the Wallac reagent (Perkin Elmer)) and the N-terminal sequence of Aβ peptide (26D6, developed at SIBIA; conjugated to APC (Perkin Elmer)) were mixed and 20 μl of the mixture was added to each well of the incubated cell plate yielding a final concentration of 0.8 ng/well 565 and 75 ng/well 26D6. For the Aβ40 measurements, antibodies specific for the Aβ40 neoepitope (TSD, developed at BMS; conjugated to the Wallac reagent (Perkin Elmer)) and 26D6 as described above were mixed and 20 μl of the mixture was added to the 10 μl aliquots which had been removed previously from the cell plate yielding a final concentration of 1.6 ng/well TSD and 17.5 ng/well 26D6. Assay plates containing antibodies were sealed with aluminum foil and incubated overnight at 4° C. Signal was determined using a Viewlux counter (Perkin Elmer) and IC50 values determined using curve fitting in CurveMaster (Excel Fit based).

| Compound | IC50 [nM] |
| --- | --- |
| COc1ccc([C@@H]2C[C@@H](c3cc(-c4cncnc4)c(F)cc3F)N=C(N)S2)cc1OC (single isomer, unassigned) [Example 1A] | 290 |
| COc1ccc([C@@H]2C[C@@H](c3cccc(-c4cncnc4)c3)N=C(N)S2)cc1OC (single isomer, unassigned) [Example 3A] | 1100 |
| COc1ccc([C@@H]2C[C@@H](c3ccc(F)c(-c4cncnc4)c3)N=C(N)S2)cc1OC (single isomer, unassigned) [Example 7A] | 350 |
| COc1ccc([C@@H]2C[C@@H](c3cc(-c4cncnc4)ccc3F)N=C(N)S2)cc1OC (single isomer, unassigned) [Example 8A] | 460 |

same assay, conditions: H4 APP751 SWE clone 8.20 cells, 19 h incubation; Table 5B, 6-heterocyclic thiazine examples

| Compound | IC50 [nM] |
| --- | --- |
| Cc1oncc1[C@]1(C)C[C@@H](c2cc(-c3cncnc3)c(F)cc2F)N=C(N)S1 (racemic) [Example 33, (±)-4-(2,4-difluoro-5-(pyrimidin-5-yl)phenyl)-6-methyl-6-(5-methylisoxazol-4-yl)-5,6-dihydro-4H-1,3-thiazin-2-amine] | 180 |
| Cc1noc(C)c1[C@]1(C)C[C@@H](c2cc(-c3cncnc3)c(F)cc2F)N=C(N)S1 (racemic) [Example 34, (±)-4-(2,4-difluoro-5-(pyrimidin-5-yl)phenyl)-6-(3,5-dimethylisoxazol-4-yl)-6-methyl-5,6-dihydro-4H-1,3-thiazin-2-amine•TFA] | 2700 |
| Cc1noc(C)c1[C@@H]1C[C@@H](c2cc(-c3cccc(C#N)c3)cs2)N=C(N)S1 (racemic) [Example 35, 3-(5-((±)-2-amino-6-(3,5-dimethylisoxazol-4-yl)-5,6-dihydro-4H-1,3-thiazin-4-yl)thiophen-3-yl)benzonitrile] | 300 |
| CC#Cc1cncc(-c2csc([C@@H]3C[C@@H](c4c(C)noc4C)SC(N)=N3)c2)c1 (racemic) [Example 36, (±)-6-(3,5-dimethylisoxazol-4-yl)-4-(4-(5-(prop-1-ynyl)pyridin-3-yl)thiophen-2-yl)-5,6-dihydro-4H-1,3-thiazin-2-amine] | 60 |
| Cc1noc(C)c1[C@@H]1C[C@@H](c2cc(NC(=O)c3ccc(Br)cn3)ccc2F)N=C(N)S1 (racemic) [Example 37, N-(3-((±)-2-amino-6-(3,5-dimethylisoxazol-4-yl)-5,6-dihydro-4H-1,3-thiazin-4-yl)-4-fluorophenyl)-5-bromopicolinamide] | 22 |
| Cc1noc(C)c1[C@@H]1C[C@@H](c2cc(NC(=O)c3ccc(Cl)cn3)ccc2F)N=C(N)S1 (racemic) [Example 38, N-(3-((±)-2-amino-6-(3,5-dimethylisoxazol-4-yl)-5,6-dihydro-4H-1,3-thiazin-4-yl)-4-fluorophenyl)-5-chloropicolinamide•TFA] | 11 |
| Cc1noc(C)c1[C@@H]1C[C@@H](c2cc(-c3cncnc3)c(F)cc2F)N=C(N)S1 (single isomer, unassigned) [Example 29A] | 60 |
| Cc1noc(C)c1[C@@H]1C[C@@H](c2cc(NC(=O)c3ccc(Cl)cn3)ccc2F)N=C(N)S1 (single isomer, unassigned) [Example 38A] | 5 |
| COc1ccc([C@@H]2C[C@@H](c3cccc(-c4cncnc4)c3)N=C(N)S2)cn1 [Example 10, (4S,6S)-6-(6-methoxypyridin-3-yl)-4-(3-(pyrimidin-5-yl)phenyl)-5,6-dihydro-4H-1,3-thiazin-2-amine•TFA] | 2100 |
| Cc1noc(C)c1[C@@H]1C[C@@](C)(c2cc(-c3cncnc3)c(F)cc2F)N=C(N)S1 [Example 39, (4S,6S)-4-(2,4-difluoro-5-(pyrimidin-5-yl)phenyl)-6-(3,5-dimethylisoxazol-4-yl)-4-methyl-5,6-dihydro-4H-1,3-thiazin-2-amine] | 8 |
| Cc1ncc(-c2cc([C@]3(C)C[C@@H](c4c(C)noc4C)SC(N)=N3)c(F)cc2F)cn1 [Example 40, (4S,6S)-4-(2,4-difluoro-5-(2-methylpyrimidin-5-yl)phenyl)-6-(3,5-dimethylisoxazol-4-yl)-4-methyl-5,6-dihydro-4H-1,3-thiazin-2-amine] | 186 |
| Cc1nc([C@@H]2C[C@@](C)(c3cc(-c4cncnc4)c(F)cc3F)N=C(N)S2)c(C)o1 [Example 41, (4S,6S)-4-(2,4-difluoro-5-(pyrimidin-5-yl)phenyl)-6-(2,5-dimethyloxazol-4-yl)-4-methyl-5,6-dihydro-4H-1,3-thiazin-2-amine] | 233 |
| Cc1nc(C)c([C@@H]2C[C@@](C)(c3cc(-c4cncnc4)c(F)cc3F)N=C(N)S2)o1 [Example 42, (4S,6S)-4-(2,4-difluoro-5-(pyrimidin-5-yl)phenyl)-6-(2,4-dimethyloxazol-5-yl)-4-methyl-5,6-dihydro-4H-1,3-thiazin-2-amine] | 108 |
| Cc1nc(C)c([C@@H]2C[C@@](C)(c3cc(-c4cncnc4)c(F)cc3F)N=C(N)S2)s1 [Example 43, (4S,6S)-4-(2,4-difluoro-5-(pyrimidin-5-yl)phenyl)-6-(2,4-dimethylthiazol-5-yl)-4-methyl-5,6-dihydro-4H-1,3-thiazin-2-amine] | 210 |
| CC#Cc1cncc(-c2cc(Cl)c([C@]3(C)C[C@@H](c4c(C)noc4C)SC(N)=N3)s2)c1 [Example 44, (4S,6S)-4-(3-chloro-5-(5-(prop-1-ynyl)pyridin-3-yl)thiophen-2-yl)-6-(3,5-dimethylisoxazol-4-yl)-4-methyl-5,6-dihydro-4H-1,3-thiazin-2-amine] | 30 |
| Cc1noc(C)c1[C@@H]1C[C@@](C)(c2ccc(F)cc2F)N=C(N)S1 [Example 45, (4S,6S)-4-(2,4-difluorophenyl)-6-(3,5-dimethylisoxazol-4-yl)-4-methyl-5,6-dihydro-4H-1,3-thiazin-2-amine] | 150 |
| Cc1noc(C)c1[C@@H]1C[C@@](C)(c2cc(-c3cnc(F)nc3)c(F)cc2F)N=C(N)S1 [Example 46, (4S,6S)-4-(2,4-difluoro-5-(2-fluoropyrimidin-5-yl)phenyl)-6-(3,5-dimethylisoxazol-4-yl)-4-methyl-5,6-dihydro-4H-1,3-thiazin-2-amine] | 390 |
| CC(=O)c1cc([C@]2(C)C[C@@H](c3c(C)noc3C)SC(N)=N2)c(F)cc1F [Example 47, 1-(5-((4S,6S)-2-amino-6-(3,5-dimethylisoxazol-4-yl)-4-methyl-5,6-dihydro-4H-1,3-thiazin-4-yl)-2,4-difluorophenyl)ethanone] | 220 |
| Cc1noc(CC(C)(C)O)c1[C@@H]1C[C@@](C)(c2ccc(F)cc2F)N=C(N)S1 [Example 48, 1-(4-((4S,6S)-2-amino-4-(2,4-difluorophenyl)-4-methyl-5,6-dihydro-4H-1,3-thiazin-6-yl)-3-methylisoxazol-5-yl)-2-methylpropan-2-ol] | 110 |
| Cc1noc(C)c1[C@@H]1C[C@@](C)(c2cc(F)cc(F)c2)N=C(N)S1 [Example 49, (4S,6S)-4-(3,5-difluorophenyl)-6-(3,5-dimethylisoxazol-4-yl)-4-methyl-5,6-dihydro-4H-1,3-thiazin-2-amine] | 270 |
| Cc1noc(C)c1[C@@H]1C[C@@](C)(c2cc(F)c(F)c(F)c2)N=C(N)S1 [Example 50, (4S,6S)-6-(3,5-dimethylisoxazol-4-yl)-4-methyl-4-(3,4,5-trifluorophenyl)-5,6-dihydro-4H-1,3-thiazin-2-amine] | 840 |
| CC[C@@]1(c2ccc(F)cc2F)C[C@@H](c2c(C)noc2C)SC(N)=N1 [Example 51, (4S,6S)-4-(2,4-difluorophenyl)-6-(3,5-dimethylisoxazol-4-yl)-4-ethyl-5,6-dihydro-4H-1,3-thiazin-2-amine] | 1300 |
